Assay results: ChEMBL document CHEMBL5291721, “A preclinical secondary pharmacology resource illuminates target-adverse drug reaction associations of marketed drugs” (Nat Commun, 2023)

What was measured:
[1] = biological target: T1, Adenosine receptor A1 (Homo sapiens, UniProt P30542)
T1 sequence (P30542 whole entry): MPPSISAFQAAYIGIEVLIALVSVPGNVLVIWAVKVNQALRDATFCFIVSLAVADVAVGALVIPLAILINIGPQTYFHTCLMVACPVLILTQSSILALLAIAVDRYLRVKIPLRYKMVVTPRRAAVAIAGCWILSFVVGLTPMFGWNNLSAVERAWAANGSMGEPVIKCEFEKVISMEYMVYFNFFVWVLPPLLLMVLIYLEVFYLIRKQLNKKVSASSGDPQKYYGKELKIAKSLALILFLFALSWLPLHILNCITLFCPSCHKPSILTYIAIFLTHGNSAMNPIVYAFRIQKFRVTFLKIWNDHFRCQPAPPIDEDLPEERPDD

[2] = biological target: Sodium-dependent serotonin transporter (Homo sapiens, UniProt P31645)
[3] = biological target: T2, Cholecystokinin receptor type A (Homo sapiens, UniProt P32238)
T2 sequence (P32238 whole entry): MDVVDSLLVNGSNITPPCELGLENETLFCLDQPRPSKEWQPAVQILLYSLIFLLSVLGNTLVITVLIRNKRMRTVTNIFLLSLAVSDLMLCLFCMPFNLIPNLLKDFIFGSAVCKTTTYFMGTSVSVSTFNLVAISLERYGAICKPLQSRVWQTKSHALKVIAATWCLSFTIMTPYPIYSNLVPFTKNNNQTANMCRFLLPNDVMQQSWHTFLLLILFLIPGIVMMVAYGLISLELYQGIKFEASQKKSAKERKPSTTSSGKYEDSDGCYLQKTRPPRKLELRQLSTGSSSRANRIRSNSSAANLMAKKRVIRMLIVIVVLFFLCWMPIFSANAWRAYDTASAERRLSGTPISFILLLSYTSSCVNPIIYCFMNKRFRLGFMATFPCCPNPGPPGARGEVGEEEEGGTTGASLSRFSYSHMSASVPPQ

[4] = biological target: T3, Muscarinic acetylcholine receptor M1 (Homo sapiens, UniProt P11229); assay type: functional
T3 sequence (P11229 whole entry): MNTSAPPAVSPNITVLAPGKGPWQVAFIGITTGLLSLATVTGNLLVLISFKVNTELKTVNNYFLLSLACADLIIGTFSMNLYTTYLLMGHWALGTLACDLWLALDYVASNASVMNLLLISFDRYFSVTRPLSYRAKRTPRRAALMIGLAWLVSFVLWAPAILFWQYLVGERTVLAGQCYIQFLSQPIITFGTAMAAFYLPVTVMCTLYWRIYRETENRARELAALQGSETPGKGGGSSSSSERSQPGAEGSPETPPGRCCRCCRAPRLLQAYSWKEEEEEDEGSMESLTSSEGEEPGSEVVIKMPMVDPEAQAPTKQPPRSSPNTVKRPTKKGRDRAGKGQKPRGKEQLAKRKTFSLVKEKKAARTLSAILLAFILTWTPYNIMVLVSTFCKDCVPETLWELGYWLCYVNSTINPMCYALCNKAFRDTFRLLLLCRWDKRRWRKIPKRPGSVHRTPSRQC

[5] = biological target: T4, Adenosine receptor A3 (Homo sapiens, UniProt P0DMS8)
T4 sequence (P0DMS8 whole entry): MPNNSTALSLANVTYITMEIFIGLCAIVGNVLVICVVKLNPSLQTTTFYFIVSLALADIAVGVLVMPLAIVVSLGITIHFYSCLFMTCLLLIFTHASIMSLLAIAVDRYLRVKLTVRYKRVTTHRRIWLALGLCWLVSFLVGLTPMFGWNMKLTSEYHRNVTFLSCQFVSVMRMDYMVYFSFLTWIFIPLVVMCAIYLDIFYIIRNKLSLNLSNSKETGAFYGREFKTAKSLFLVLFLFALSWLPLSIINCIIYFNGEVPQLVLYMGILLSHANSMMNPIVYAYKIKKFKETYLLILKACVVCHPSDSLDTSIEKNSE

[6] = biological target: Melanocortin receptor 4 (Homo sapiens, UniProt P32245)
[7] = biological target: T5, 5-hydroxytryptamine receptor 2C (Homo sapiens, UniProt P28335)
T5 sequence (P28335 whole entry): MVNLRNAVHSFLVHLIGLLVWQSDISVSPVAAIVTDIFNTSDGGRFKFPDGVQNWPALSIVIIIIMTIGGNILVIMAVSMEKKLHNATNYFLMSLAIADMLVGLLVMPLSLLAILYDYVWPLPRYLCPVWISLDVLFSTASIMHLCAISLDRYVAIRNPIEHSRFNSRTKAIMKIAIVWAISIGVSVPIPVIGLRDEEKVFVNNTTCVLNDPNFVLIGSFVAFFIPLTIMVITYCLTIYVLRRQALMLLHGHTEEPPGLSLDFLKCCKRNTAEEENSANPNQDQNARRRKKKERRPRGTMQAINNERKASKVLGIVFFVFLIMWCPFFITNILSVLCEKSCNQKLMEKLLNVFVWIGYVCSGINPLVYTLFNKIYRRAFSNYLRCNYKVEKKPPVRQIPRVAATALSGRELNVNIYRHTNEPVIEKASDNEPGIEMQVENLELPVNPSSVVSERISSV

[8] = biological target: T6, Estrogen receptor (Homo sapiens, UniProt P03372)
T6 sequence (P03372 whole entry): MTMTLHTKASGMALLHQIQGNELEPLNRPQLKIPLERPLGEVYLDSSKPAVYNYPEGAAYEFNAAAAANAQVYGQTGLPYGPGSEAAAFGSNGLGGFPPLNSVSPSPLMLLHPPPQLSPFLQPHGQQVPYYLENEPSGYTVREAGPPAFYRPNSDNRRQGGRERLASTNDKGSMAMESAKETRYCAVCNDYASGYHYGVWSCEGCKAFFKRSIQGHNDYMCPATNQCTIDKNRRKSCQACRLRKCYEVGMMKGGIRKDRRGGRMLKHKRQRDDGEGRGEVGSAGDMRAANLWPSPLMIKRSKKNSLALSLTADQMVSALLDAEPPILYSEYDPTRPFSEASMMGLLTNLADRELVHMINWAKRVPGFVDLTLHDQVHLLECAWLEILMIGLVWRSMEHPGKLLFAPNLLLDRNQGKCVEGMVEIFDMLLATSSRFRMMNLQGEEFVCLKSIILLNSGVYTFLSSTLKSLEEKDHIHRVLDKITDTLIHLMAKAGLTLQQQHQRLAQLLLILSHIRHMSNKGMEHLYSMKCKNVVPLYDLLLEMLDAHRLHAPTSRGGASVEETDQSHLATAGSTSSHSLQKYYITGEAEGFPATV

[9] = biological target: Delta-type opioid receptor (Homo sapiens, UniProt P41143)
[10] = biological target: 5-hydroxytryptamine receptor 2B (Homo sapiens, UniProt P41595); assay type: functional, cell-based
[11] = biological target: Cannabinoid receptor 1 (Homo sapiens, UniProt P21554); assay type: functional, cell-based
Note: assay procedure not described here.

Chain of Delta-type opioid receptor (P41143 whole entry): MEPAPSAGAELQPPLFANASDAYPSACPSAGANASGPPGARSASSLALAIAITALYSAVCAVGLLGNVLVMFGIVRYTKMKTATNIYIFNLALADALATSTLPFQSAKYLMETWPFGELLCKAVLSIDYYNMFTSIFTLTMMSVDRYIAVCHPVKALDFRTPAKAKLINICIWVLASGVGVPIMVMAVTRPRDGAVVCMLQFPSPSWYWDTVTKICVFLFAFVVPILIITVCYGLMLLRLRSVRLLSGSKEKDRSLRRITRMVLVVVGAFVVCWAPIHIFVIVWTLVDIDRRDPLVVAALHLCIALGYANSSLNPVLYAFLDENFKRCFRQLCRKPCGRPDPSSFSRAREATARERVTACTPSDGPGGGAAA
Chain of Cannabinoid receptor 1 (P21554 whole entry): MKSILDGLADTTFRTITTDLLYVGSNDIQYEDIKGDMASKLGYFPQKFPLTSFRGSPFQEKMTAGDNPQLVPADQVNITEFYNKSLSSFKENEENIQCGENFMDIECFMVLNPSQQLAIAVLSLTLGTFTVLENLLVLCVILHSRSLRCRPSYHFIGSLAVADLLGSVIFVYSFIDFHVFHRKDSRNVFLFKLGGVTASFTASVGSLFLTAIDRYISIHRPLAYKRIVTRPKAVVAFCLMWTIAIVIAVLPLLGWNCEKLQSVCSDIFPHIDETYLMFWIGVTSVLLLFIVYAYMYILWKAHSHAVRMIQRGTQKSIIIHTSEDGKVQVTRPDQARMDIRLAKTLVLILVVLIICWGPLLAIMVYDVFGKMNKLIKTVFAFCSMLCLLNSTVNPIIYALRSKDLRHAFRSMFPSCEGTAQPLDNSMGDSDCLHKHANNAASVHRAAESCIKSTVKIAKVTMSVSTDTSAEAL
Chain of Sodium-dependent serotonin transporter (P31645 whole entry): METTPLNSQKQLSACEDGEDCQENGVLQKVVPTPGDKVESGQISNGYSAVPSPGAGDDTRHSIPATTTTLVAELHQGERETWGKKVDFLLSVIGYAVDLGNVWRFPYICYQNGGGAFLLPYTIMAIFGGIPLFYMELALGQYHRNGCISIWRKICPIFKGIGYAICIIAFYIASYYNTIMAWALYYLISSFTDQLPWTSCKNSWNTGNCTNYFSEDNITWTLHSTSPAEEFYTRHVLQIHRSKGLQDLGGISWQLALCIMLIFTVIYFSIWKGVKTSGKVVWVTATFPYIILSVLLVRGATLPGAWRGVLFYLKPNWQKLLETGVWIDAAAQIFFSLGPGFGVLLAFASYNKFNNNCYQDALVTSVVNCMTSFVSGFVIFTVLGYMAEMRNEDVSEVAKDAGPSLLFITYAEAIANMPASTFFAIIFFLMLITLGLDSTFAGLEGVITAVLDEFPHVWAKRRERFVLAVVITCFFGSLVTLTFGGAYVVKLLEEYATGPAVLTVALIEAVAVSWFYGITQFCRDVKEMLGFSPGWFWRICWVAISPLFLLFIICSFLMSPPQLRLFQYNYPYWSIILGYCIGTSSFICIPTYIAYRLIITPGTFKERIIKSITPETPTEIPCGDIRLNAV
Chain of 5-hydroxytryptamine receptor 2B (P41595 whole entry): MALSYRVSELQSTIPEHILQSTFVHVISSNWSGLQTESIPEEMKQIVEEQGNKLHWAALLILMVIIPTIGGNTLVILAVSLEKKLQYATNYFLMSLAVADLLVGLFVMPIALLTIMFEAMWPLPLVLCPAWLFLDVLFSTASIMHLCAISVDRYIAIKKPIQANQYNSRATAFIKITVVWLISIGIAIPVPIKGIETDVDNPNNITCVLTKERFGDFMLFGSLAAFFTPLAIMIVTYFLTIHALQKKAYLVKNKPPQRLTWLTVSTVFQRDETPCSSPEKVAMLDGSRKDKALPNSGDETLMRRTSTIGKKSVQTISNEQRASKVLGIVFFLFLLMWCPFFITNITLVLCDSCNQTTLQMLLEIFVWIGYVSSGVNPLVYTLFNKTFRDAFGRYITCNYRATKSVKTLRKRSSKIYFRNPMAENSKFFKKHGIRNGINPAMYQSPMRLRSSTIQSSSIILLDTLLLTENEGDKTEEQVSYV
Chain of Melanocortin receptor 4 (P32245 whole entry): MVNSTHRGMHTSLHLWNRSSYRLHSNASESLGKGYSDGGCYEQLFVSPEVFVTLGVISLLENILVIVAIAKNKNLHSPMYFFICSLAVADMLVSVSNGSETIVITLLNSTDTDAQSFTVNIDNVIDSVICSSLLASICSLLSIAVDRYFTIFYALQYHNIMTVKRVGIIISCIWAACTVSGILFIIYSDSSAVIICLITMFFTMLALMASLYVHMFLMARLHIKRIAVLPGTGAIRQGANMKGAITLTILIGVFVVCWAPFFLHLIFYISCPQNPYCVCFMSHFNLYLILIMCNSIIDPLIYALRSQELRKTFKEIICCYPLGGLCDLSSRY

| Compound | AC50 [1] | AC50 [2] | AC50 [3] | AC50 [4] | AC50 [5] | AC50 [6] | AC50 [7] | AC50 [8] | AC50 [9] | AC50 [10] | AC50 [11] |
| --- | --- | --- | --- | --- | --- | --- | --- | --- | --- | --- | --- |
| CCCCCCCC(=O)N[C@H](CN1CCCC1)[C@H](O)c1ccc2c(c1)OCCO2 | > 30 µM |  |  |  |  |  |  |  |  |  |  |
| C[C@]1(COc2ccc(N3CCC(Oc4ccc(OC(F)(F)F)cc4)CC3)cc2)Cn2cc([N+](=O)[O-])nc2O1 | > 30 µM | > 10 µM | > 30 µM | > 10 µM | > 30 µM | > 30 µM | > 30 µM | > 30 µM | > 30 µM |  |  |
| CC(=O)OCC[N+](C)(C)C [ACETYLCHOLINE] | > 30 µM | > 30 µM | > 30 µM |  | > 30 µM | > 30 µM | > 30 µM |  | > 10 µM | > 10 µM | > 30 µM |
| O=C(Nc1nc(-c2cc(Cl)cs2)c(N2CCN(C3CCCCC3)CC2)s1)c1cnc(N2CCC(C(=O)O)CC2)c(Cl)c1 [AVATROMBOPAG] | > 30 µM | > 10 µM |  | > 10 µM | > 10 µM | > 10 µM | > 10 µM |  | > 10 µM |  |  |
| C[C@@H](O)[C@H]1C(=O)N2C(C(=O)[O-])=C(SC3Cn4cnc[n+]4C3)[C@H](C)[C@H]12 (stereo not given in full) [BIAPENEM] | > 30 µM |  |  |  |  |  |  |  |  |  |  |
| Cc1nnc(SCC2=C(C(=O)O)N3C(=O)[C@@H](NC(=O)Cn4cc(Cl)c(=O)c(Cl)c4)[C@H]3SC2)s1 [CEFAZEDONE] | > 30 µM |  |  |  |  |  |  |  |  |  |  |
| CO[C@@]1(NC(=O)CSCC#N)C(=O)N2C(C(=O)O)=C(CSc3nnnn3C)CS[C@@H]21 [CEFMETAZOLE] | > 30 µM |  |  |  |  |  |  |  | > 30 µM | > 30 µM | > 30 µM |
| CO/N=C(\C(=O)N[C@@H]1C(=O)N2C(C(=O)[O-])=C(C[n+]3cccc4c3CCC4)CS[C@H]12)c1csc(N)n1 [CEFPIROME] | > 30 µM |  |  | > 30 µM |  |  | > 30 µM |  | > 30 µM | > 30 µM | > 30 µM |
| CC[C@H]1OC(=O)[C@H](C)[C@@H](O[C@H]2C[C@@](C)(OC)[C@@H](O)[C@H](C)O2)[C@H](C)[C@@H](O[C@@H]2O[C@H](C)C[C@H](N(C)C)[C@H]2O)[C@](C)(OC)C[C@@H](C)C(=O)[C@H](C)[C@@H](O)[C@]1(C)O [CLARITHROMYCIN] | > 30 µM |  | > 30 µM |  | > 30 µM |  |  |  |  | > 30 µM | > 30 µM |
| Oc1c(I)cc(Cl)c2cccnc12 [CLIOQUINOL] | > 30 µM |  |  | > 30 µM |  |  | > 10 µM |  | > 30 µM | > 30 µM | > 30 µM |
| O=C(CCCN1CC=C(n2c(=O)[nH]c3ccccc32)CC1)c1ccc(F)cc1 [DROPERIDOL] | > 30 µM |  |  |  |  |  |  |  |  |  |  |
| Nc1nc(N)nc(Nc2ccc([As]3SCC(CO)S3)cc2)n1 (stereo not given) [MELARSOPROL] | > 30 µM |  |  |  |  |  |  |  |  |  |  |
| CCC(=O)O[C@@H]1CC(=O)O[C@H](C)C/C=C/C=C/[C@H](OC(C)=O)[C@H](C)C[C@H](CC=O)[C@H](O[C@@H]2O[C@H](C)[C@@H](O[C@H]3C[C@@](C)(OC(C)=O)[C@@H](OC(=O)CC)[C@H](C)O3)[C@H](N(C)C)[C@H]2O)[C@H]1OC [MIOCAMYCIN] | > 30 µM |  |  |  |  |  |  |  |  |  |  |
| C1CNCCN1 [PIPERAZINE] | > 30 µM |  |  |  |  |  |  |  |  |  |  |
| COCCCOc1ccnc(C[S+]([O-])c2nc3ccccc3[nH]2)c1C (stereo not given) [RABEPRAZOLE] | > 30 µM |  | > 30 µM |  | 2.2 µM | > 30 µM | > 30 µM |  | > 30 µM | 12 µM |  |
